≈ marks a conversion by molar mass, not a printed value. Like-named read-outs stand apart in the source and are kept apart here. Square brackets hold non-standard residues; d marks the D form. Ends that are not written are not given here. Peptide text beside a SMILES is read from it. Trp(5-OH) = N[C@@H](Cc1c[nH]c2ccc(O)cc12)C(=O)O
How the values were obtained:
MDR S. aureus = assay: microbe, parasite or virus in culture; conditions: CLSI broth microdilution; CAMHB with 50 mg/L Ca2+, 10 mg/L Mg2+; 5 × 10^5 CFU/ml; 18 h 37 °C; triplicate; strain KCCM 40510
Outline: (§1)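 Broth microdilution per CLSI in cation-adjusted Mueller–Hinton broth with added calcium (50 mg/L) and magnesium (10 mg/L); mid-log bacteria at a final 5 × 10^5 CFU/ml were incubated with peptide for 18 h at 37 °C. MIC was the lowest concentration without visible turbidity, in triplicate.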

MDR P. aeruginosa = assay: microbe, parasite or virus in culture; conditions: CLSI broth microdilution; CAMHB with 50 mg/L Ca2+, 10 mg/L Mg2+; 5 × 10^5 CFU/ml; 18 h 37 °C; no visible turbidity; triplicate; strain CCARM 2180
Outline: as §1

MDR A. baumannii = assay: microbe, parasite or virus in culture; conditions: CLSI broth microdilution; CAMHB with 50 mg/L Ca2+, 10 mg/L Mg2+; 5 × 10^5 CFU/ml; 18 h 37 °C; triplicate; strain ATCC BAA-1605
Outline: as §1

MDR E. faecalis = assay: microbe, parasite or virus in culture; conditions: CLSI broth microdilution; CAMHB with 50 mg/L Ca2+, 10 mg/L Mg2+; 5 × 10^5 CFU/ml; 18 h 37 °C; triplicate; strain ATCC 51575
Outline: as §1

human red blood cells = assay: Hemolytic activity; type: cell-based
Outline: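 Peptides (100 μM down to 0.78 μM) were incubated with 4% final human erythrocytes in PBS for 18 h at 37 °C. Supernatant absorbance at 540 nm after centrifugation was scaled to 1% Triton X-100 (100%) and no peptide (0%); melittin served as positive control; triplicate runs.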

Compound | Minimum inhibitory concentrations, MDR S. aureus (MDR S. aureus) [µM] | Minimum inhibitory concentrations, MDR P. aeruginosa (MDR P. aeruginosa) [µM] | Minimum inhibitory concentrations, MDR A. baumannii (MDR A. baumannii) [µM] | Minimum inhibitory concentrations, MDR E. faecalis (MDR E. faecalis) [µM] | Hemolysis percent, 25 μM (human red blood cells; red cells of human, 18 h, 25) [%] | Hemolysis percent, 50 μM (human red blood cells; red cells of human, 18 h, 50) [%] | Hemolysis percent, 100 μM (human red blood cells; red cells of human, 18 h, 100) [%] | Hemolysis percent, 25 μM (human red blood cells) [%] | Hemolysis percent, 50 μM (human red blood cells) [%] | Hemolysis percent, 100 μM (human red blood cells) [%]
CC[C@@H](C)[C@@H](NC(=O)[C@@H](Cc1c[nH]c2ccccc12)NC(=O)[C@@H](CC(C)C)NC(=O)[C@@H](CC(C)C)NC(=O)[C@@H](Cc1c[nH]c2ccccc12)NC(=O)[C@@H](N)CO)C(=O)NCC(=O)N[C@H](CC(C)C)C(=O)N[C@H](CCCNC(=N)N)C(=O)N[C@H](CCCCN)C(=O)N[C@H](CCCCN)C(=O)N[C@H](CCCNC(=N)N)C(N)=O [WCopW19] (H-S[dW][dL][dL][dW][dI]G[dL][dR][dK][dK][dR]-NH2) | 2.5 (≈ 3.89 µg/mL) | 10 (≈ 15.5 µg/mL) | 2.5 (≈ 3.89 µg/mL) | 2.5 (≈ 3.89 µg/mL) | 4.32 | 7.26 | 10.57 | – | – | –
CC[C@@H](C)[C@@H](NC(=O)[C@@H](Cc1c[nH]c2ccccc12)NC(=O)[C@@H](CCC(=O)O)NC(=O)[C@@H](CC(C)C)NC(=O)[C@H](N)Cc1c[nH]c2ccccc12)C(=O)NCC(=O)N[C@H](CC(C)C)C(=O)N[C@H](CCCNC(=N)N)C(=O)N[C@H](CCCCN)C(=O)N[C@H](CCCCN)C(=O)N[C@H](CCCNC(=N)N)C(N)=O [WCopWE] (H-[dW][dL][dE][dW][dI]G[dL][dR][dK][dK][dR]-NH2) | >20 | >20 | 10 (≈ 14.8 µg/mL) | >20 | – | – | – | – | – | –
NH2 wF l l w i g l r k k r CONH2 [WCopW18, WCopW analog] | 1.25 | 5 | 1.25 | 2.5 | – | – | – | 1.89 | 4.52 | 6.74
CC[C@@H](C)[C@@H](NC(=O)[C@@H](Cc1c[nH]c2ccccc12)NC(=O)[C@@H](Cc1ccc(O)cc1)NC(=O)[C@@H](CC(C)C)NC(=O)[C@H](N)Cc1c[nH]c2ccccc12)C(=O)NCC(=O)N[C@H](CC(C)C)C(=O)N[C@H](CCCNC(=N)N)C(=O)N[C@H](CCCCN)C(=O)N[C@H](CCCCN)C(=O)N[C@H](CCCNC(=N)N)C(N)=O [WCopWY] (H-[dW][dL][dY][dW][dI]G[dL][dR][dK][dK][dR]-NH2) | 10 (≈ 15.2 µg/mL) | 20 (≈ 30.4 µg/mL) | 1.25 (≈ 1.9 µg/mL) | 2.5 (≈ 3.79 µg/mL) | – | – | – | – | – | –
CC(C)C[C@@H](NC(=O)[C@H](N)Cc1c[nH]c2ccccc12)C(=O)N[C@H](CC(C)C)C(=O)N[C@H](Cc1c[nH]c2ccccc12)C(=O)N[C@H](C)C(=O)NCC(=O)N[C@H](C)C(=O)N[C@H](CCCNC(=N)N)C(=O)N[C@H](CCCCN)C(=O)N[C@H](CCCCN)C(=O)N[C@H](CCCNC(=N)N)C(N)=O [WCopW21] (H-[dW][dL][dL][dW][dA]G[dA][dR][dK][dK][dR]-NH2) | > 20 | > 20 | > 20 | > 20 | 0.60 | 1.03 | 1.74 | – | – | –
CC[C@H](C)[C@H](NC(=O)[C@H](Cc1c[nH]c2ccc(O)cc12)NC(=O)[C@H](CC(C)C)NC(=O)[C@H](CC(C)C)NC(=O)[C@@H](N)Cc1c[nH]c2ccc(O)cc12)C(=O)N[C@@H](C)C(=O)N[C@@H](CC(C)C)C(=O)N[C@@H](CCCNC(=N)N)C(=O)N[C@@H](CCCCN)C(=O)N[C@@H](CCCCN)C(N)=O [WhCopW] (H-[Trp(5-OH)]LL[Trp(5-OH)]IALRKK-NH2) | 5 (≈ 6.79 µg/mL) | > 20 | > 20 | > 20 | – | – | – | – | – | –
SLLWIALRKK-NH2 [SCopW] | >20 | >20 | >20 | >20 | – | – | – | – | – | –

— article PMC9643456, “Matching amino acids membrane preference profile to improve activity of antimicrobial peptides” (Communications Biology, 2022)
